Broadly, the melting point is the temperature of the solid-liquid transition.

Take `CCCCCNc1nc(SC)nc2c(C)n[nH]c12`: the melting point lay in the range of 88 to 90 °C.

For the compound `COC(C)=CC(=O)Nc1ccc(Cl)c(Cl)c1`, the melting point worked out at 123 °C.

Compound `NN=c1[nH]c2ccc(Br)cc2cc1[N+](=O)[O-]` displayed a melting point of 187 °C.

For `FC(F)(F)c1ccc2ncc(Br)cc2c1`, the melting point worked out at 79 °C. `CN(C)C(=O)CCCOC(=O)C(OCc1ccc(-c2ccc(Cl)cc2)cc1)(C(F)(F)F)C(F)(F)F` had a melting point of 54 to 55 °C.

Turning to `COc1cc(C2COc3c(C)c(C)c(NC(=O)CC(C)(C)C)c(C)c32)ccc1C(C)=O` (stereo not drawn), the melting point fell in the range of 131 to 133 °C. Compound `COc1cc2c(cc1C(F)(F)F)N(C(=O)Nc1cccc(-c3cncnc3)c1)CC2` showed a melting point of 226 to 228 °C. On to `C#CCNCC1=Cc2cc(S(N)(=O)=O)sc2S(=O)(=O)N1C(C)C`, for which the melting point is 133 to 135 °C.

As to `Cc1cc(S)n2nc(N)nc2n1`, the melting point was above 300 °C. With `NS(=O)(=O)c1cccc2nonc12`, the melting point was 157 to 159 °C. Under `COc1c(Cl)ccc(-c2nc(C(=O)OC(C)C)cc(N)c2F)c1F` stands 177 to 179 °C; under `CCC(=O)c1ccc(SCCCBr)cc1`, 40 to 41 °C. `C=CC(c1cn(-c2ccccc2)nc1OCc1ccc(OCc2nc(-c3ccco3)oc2C)c(OC)c1)n1cncn1` (stereo not drawn) displayed a melting point of 115 to 116 °C. Under `Cc1nc(C(c2c(Cl)cccc2Cl)n2cncn2)nc(C)c1N` (stereo not drawn) stands 158 to 159 °C; under `Clc1ccc(C2(c3ccc4nccc(CCc5ccc(Cl)s5)c4c3)OCCO2)cc1`, 94 °C; under `Cc1noc(C)c1Cn1cc(N2C(=O)N(Cc3cc(O[Si](C)(C)C(C)(C)C)cc(O[Si](C)(C)C(C)(C)C)c3)C(C)(C)C2=O)cn1`, 213 to 215 °C.

Regarding `COc1ccccc1-c1cc(F)cc(OCc2ccc3c(-c4ccoc4)cc(C#N)nc3c2)c1`, the melting point fell in the range of 132 to 134 °C. Regarding `CC(=O)NC1CCN(c2cccc(Br)n2)CC1`, the melting point fell in the range of 158 to 160 °C. Under `CCN(CCCCc1c[nH]c2ccc(F)cc12)C1COc2c(F)ccc(C(N)=O)c2C1` (stereo not drawn) stands 110 °C. The compound `CCCCCCCCCCCC(=O)NC(CCC(=O)O)C(=O)O` (racemic) displayed a melting point of 101 to 104 °C. Regarding `COC(=O)C(ON1C(C)(C)CCCC1(C)C)c1ccccc1` (stereo not drawn), the melting point was in the range of 83 to 86 °C. `CN1CCC23c4c5cccc4OC2C(=O)CCC3(O)C1C5` (stereo not drawn) yielded a melting point of 223 to 225 °C. Take `CC(C)[Si](Oc1ccc2c(c1)CN(Nc1ccccn1)C2)(C(C)C)C(C)C`: the melting point is 95 to 96 °C.

Regarding `c1ccc2c(c1)CCCc1c-2n[nH]c1-c1ccncc1`, the melting point was 217 to 219 °C. `Cc1[nH]c2ccc(C3=NNC(=O)CC3)cc2c1-c1ccccc1` yielded a melting point of 297 to 299 °C. Next, `CC1CCC2(C)C(=CCC3C2CCC2(C)C(C(=O)CN)CCC32)C1` (stereo not drawn): 139 °C. In the case of `CC(C)c1ccc(OC(C)(Cc2ccc(OCCNC(=O)c3ccc(OCC(F)(F)C(F)F)nc3)cc2)C(=O)O)cc1` (stereo not drawn), the melting point was 173 to 175 °C. `O[C@@H]1CN=C(c2ccc(N3CCOCC3)cc2)O[C@H]1c1ccccc1` (racemic) showed a melting point of 150 °C. On to `CC1(C2CCCC2)Cc2cc(OS(=O)(=O)C(F)(F)F)c(Cl)c(Cl)c2C1=O` (single isomer, unassigned; (+)), for which the melting point lay within 104 to 106 °C. `COc1cc(Nc2c(C#N)cnc3c(-c4ccc(CN(C)C)cc4)csc23)c(Cl)cc1Cl` gave a melting point of 201 to 202 °C. Compound `CN1CCc2c(c3cc(F)ccc3n2CCc2nc(-c3ccccc3)cs2)C1` returned a melting point of 136 to 137 °C. Next, `Cc1ccc(S(=O)(=O)NC(CC(N)=O)C(=O)O)cc1` (stereo not drawn): 198 to 200 °C.

For `Cc1cccc2c(=O)[nH]cc(Br)c12`, the melting point fell in the range of 201 to 210 °C. Next, `COc1ccc2[nH]c(C)c(Cc3cc(=O)n(C4CCCCC4)[nH]3)c2c1`: 99 to 101 °C; `CCOC(=O)c1cn(C)c2nc3cc(N4CCN[C@@H](c5ccccc5)C4)c(F)cc3cc2c1=O`: 221 °C; `O=S(=O)(c1ccc2c(Cl)cccc2c1)N1CC2CC1CO2` (stereo not drawn): 132 to 133 °C. Compound `CC(C)(C)OC(=O)N[C@@H](CC(=O)OCc1ccccc1)C(=O)N[C@@H](Cc1ccccc1)C(=O)OCc1ccccc1` registered a melting point of 93 to 94 °C. `Cc1cc(C)c2c(c1C)OC(C)(CC#N)C2` (stereo not drawn) yielded a melting point of 58 to 59 °C. In turn, `CCOc1ccc2c(=O)c(C(=O)O)cn(CCO)c2n1` gave a melting point of 220 °C. Compound `CC(C)Oc1nc(-c2ccc(Cl)cc2)c(CCC(=O)O)o1` had a melting point of 116 to 117 °C. With `O=C(c1cc(F)cc(F)c1)c1cc(F)cc(F)c1`, the melting point came out at 79 °C. For `CS(=O)(=O)c1ccc(-n2cc(COCc3ccccc3)nc2-c2ccc(Cl)cc2)cc1`, the melting point was 64 to 65 °C.

On to `Cc1ccc(Sc2cncc3sc(C(=O)NN)cc23)cc1`, for which the melting point fell in the range of 176 to 178 °C. Compound `O=C(C(=O)c1cccc(Br)c1)c1cc[nH]c1` registered a melting point of 111 to 113 °C.

In turn, `CC(C)(C)N1C(=O)C(=O)N(c2cc(Cl)cc(Cl)c2)S1=O` (stereo not drawn) registered a melting point of 182 °C.

As to `CCS(=O)(=O)Nc1cc(-c2nc[nH]c(=O)c2Cl)c(F)cc1C#N`, the melting point lay within 249 to 252 °C. `COc1cc2c(cc1O)CC(C)(C)N(C(=O)c1cc(OC)c(OC)c(OC)c1)C2C` (stereo not drawn) displayed a melting point of 198 to 200 °C.

Take `COC(=O)C=C1Oc2ccccc2Oc2ccccc21`: the melting point is 81 to 83 °C. For `COC(=O)c1c(Cl)cc(C(F)(F)F)nc1C(F)(F)F`, the melting point lay within 48 to 49 °C. `O=C(C=Cc1cccnc1)NCCCCC1CCN(C(Br)(c2ccccc2)C2CCCCC2)CC1` (stereo not drawn): the melting point was 143 to 145 °C. Compound `Cc1ccc2cccc(OCc3c(Cl)ccc(C(=O)O)c3Cl)c2n1` came in with a melting point of 267 to 270 °C.

As to `CN(C(=O)c1ccc2nonc2c1)C1CCCCC1=O` (stereo not drawn), the melting point was 144 to 145 °C. In turn, `OCCN1CCN(c2onc3c2CCc2ccccc2-3)CC1` gave a melting point of 137 to 138 °C. With `CCOC(=O)C1(C(=O)OCC)CCc2cc3c(cc2C1c1cc(OC)c(O)c(OC)c1)OCO3` (stereo not drawn), the melting point was in the range of 147 to 148 °C. On to `Cn1c(C(=O)NCCCO)c2ccc(Cl)cc2c1-c1ccccc1`, for which the melting point was 155 to 160 °C. `CN(C)C=Cc1ccc(-c2csc(-c3ccc(F)cc3)n2)cc1[N+](=O)[O-]` had a melting point of 137 to 138 °C. Take `CC(C)(C)OC(=O)NC(C)(C)c1ccc(-c2ccc3nn(C4CCCCO4)cc3c2-c2cc[nH]n2)cc1` (stereo not drawn): the melting point was in the range of 99 to 105 °C.

For the compound `CC(C)N(C(C)C)P(N)(N)=S`, the melting point lay within 93 to 98 °C. For the compound `CC1(C)Oc2cc(Br)sc2[C@@H](N2CCCCC2=O)[C@@H]1OCc1ccccc1` (relative stereo), the melting point was 146 to 147 °C. In turn, `CN(C)c1nc(N)nc2c1ncn2C1CC(F)C(CO)O1` (stereo not drawn) showed a melting point of 96 to 100 °C. Compound `Cc1cc(O)cc2oc(=O)ccc12` came in with a melting point of 256 °C. For the compound `Nc1ccc(-c2nc3ccc(Br)cc3s2)cc1`, the melting point is 219 to 221 °C.

Turning to `Cc1cc(Oc2ccc(S(C)(=O)=O)nc2)cc2cc(C3=NCC(CC(=O)N4CCS(=O)CC4)S3)[nH]c12` (stereo not drawn), the melting point is 157 to 160 °C.
